Measurements as given in patent publication US7973061B2, “Anaplastic lymphoma kinase modulators and methods of use” (Exelixis, Inc., priority 2004, dated 2011).

Target: T1, ALK (baculovirus expressed human ALK kinase domain F1098-K1410) (Homo sapiens, UniProt Q9UM73)
T1 construct: human ALK kinase domain F1098-K1410; made in house
Assay: biochemical
Conditions: 1 μM ATP, 4 μM poly-AEKY, 12 nM ALK, 2 hours at ambient temperature; read-out: ALK IC50
Procedure, shortened: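 Inhibitors were tested at 10 concentrations, and IC50 was derived from a sigmoidal fit (Min, Max, Hill slope). Kinase activity was measured as percent ATP left after a 2 h reaction at room temperature, detected by luciferase-luciferin chemiluminescence. The ATP level was set close to KM for the ALK kinase domain F1098-K1410.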

T1 sequence (Q9UM73 1098-1410): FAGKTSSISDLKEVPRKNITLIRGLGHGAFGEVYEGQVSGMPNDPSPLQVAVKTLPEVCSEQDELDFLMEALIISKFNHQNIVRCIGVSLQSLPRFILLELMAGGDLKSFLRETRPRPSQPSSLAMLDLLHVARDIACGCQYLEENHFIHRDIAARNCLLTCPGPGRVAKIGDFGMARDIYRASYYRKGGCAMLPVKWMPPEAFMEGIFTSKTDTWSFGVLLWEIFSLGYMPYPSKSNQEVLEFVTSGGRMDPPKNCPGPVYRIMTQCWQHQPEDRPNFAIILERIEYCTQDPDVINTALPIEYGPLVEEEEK

Row | SMILES | IC50 [nM]
1 | CC(C)CCCC(C)NC(=O)c1csc(CNC(=O)COc2ccc(OC(F)(F)F)cc2)n1 (stereo not drawn) [Entry 212, N-(1,5-dimethylhexyl)-2-({[({4-[(trifluoromethyl)oxy]phenyl}oxy)acetyl]amino}methyl)-1,3-thiazole-4-carboxamide] | 50 to 500
2 | O=C(COc1ccc(OC(F)(F)F)cc1)NCc1nc(C(=O)NCCc2ccccc2Oc2ccccc2)cs1 [Entry 213, N-{2-[2-(phenyloxy)phenyl]ethyl}-2-({[({4-[(trifluoromethyl)oxy]phenyl}oxy)acetyl]amino}methyl)-1,3-thiazole-4-carboxamide] | 50 to 500
3 | O=C(COc1ccc(Cl)cc1)NCc1nc(C(=O)NCCc2ccccc2F)cs1 [Entry 215, 2-[({[(4-chlorophenyl)oxy]acetyl}amino)methyl]-N-[2-(2-fluorophenyl)ethyl]-1,3-thiazole-4-carboxamide] | 50 to 500
4 | O=C(NCc1nc(C(=O)NCCc2cccc(Cl)c2)cs1)N[C@@H]1C[C@H]1c1ccccc1 [Entry 217, N-[2-(3-chlorophenyl)ethyl]-2-{[({[(1R,2S)-2-phenylcyclopropyl]amino}carbonyl)amino]methyl}-1,3-thiazole-4-carboxamide] | 50 to 500
5 | O=C(COc1ccc(OC(F)(F)F)cc1)NCc1nc(C(=O)N[C@@H]2CCC[C@H]2OCc2ccccc2)cs1 [Entry 218, N-{(1R,2R)-2-[(phenylmethyl)oxy]cyclopentyl}-2-({[({4-[(trifluoromethyl)oxy]phenyl}oxy)acetyl]amino}methyl)-1,3-thiazole-4-carboxamide] | 50 to 500
6 | O=C(COc1ccc(OC(F)(F)F)cc1)NCc1nc(C(=O)NCCc2ccncc2)co1 [Entry 219, N-(2-pyridin-4-ylethyl)-2-({[({4-[(trifluoromethyl)oxy]phenyl}oxy)acetyl]amino}methyl)-1,3-oxazole-4-carboxamide] | 500 to 2000
7 | O=C(COc1ccc(OC(F)(F)F)cc1)NCc1nc(C(=O)NC(Cc2ccccc2)c2ccccc2)cs1 (stereo not drawn) [Entry 222, N-(1,2-diphenylethyl)-2-({[({4-[(trifluoromethyl)oxy]phenyl}oxy)acetyl]amino}methyl)-1,3-thiazole-4-carboxamide] | 500 to 2000
8 | COc1cccc(CNC(=O)c2coc(CNC(=O)COc3ccc(OC(F)(F)F)cc3)n2)c1OC [Entry 223, N-{[2,3-bis(methyloxy)phenyl]methyl}-2-({[({4-[(trifluoromethyl)oxy]phenyl}oxy)acetyl]amino}methyl)-1,3-oxazole-4-carboxamide] | 500 to 2000
9 | COc1ccc(CCNC(=O)c2coc(CNC(=O)COc3ccc(OC(F)(F)F)cc3)n2)cc1 [Entry 224, N-{2-[4-(methyloxy)phenyl]ethyl}-2-({[({4-[(trifluoromethyl)oxy]phenyl}oxy)acetyl]amino}methyl)-1,3-oxazole-4-carboxamide] | 500 to 2000
10 | O=C(COc1ccc(OC(F)(F)F)cc1)NCc1nc(C(=O)NCC(c2ccccc2)c2ccccc2)co1 [Entry 226, N-(2,2-diphenylethyl)-2-({[({4-[(trifluoromethyl)oxy]phenyl}oxy)acetyl]amino}methyl)-1,3-oxazole-4-carboxamide] | 500 to 2000
11 | CCOc1cccc(CCNC(=O)c2coc(CNC(=O)COc3ccc(OC(F)(F)F)cc3)n2)c1 [Entry 230, N-{2-[3-(ethyloxy)phenyl]ethyl}-2-({[({4-[(trifluoromethyl)oxy]phenyl}oxy)acetyl]amino}methyl)-1,3-oxazole-4-carboxamide] | 500 to 2000
12 | O=C(COc1ccc(OC(F)(F)F)cc1)NCc1nc(C(=O)NCCc2ccc(Br)cc2)co1 [Entry 231, N-[2-(4-bromophenyl)ethyl]-2-({[({4-[(trifluoromethyl)oxy]phenyl}oxy)acetyl]amino}methyl)-1,3-oxazole-4-carboxamide] | 500 to 2000
13 | CCOc1ccccc1CNC(=O)c1coc(CNC(=O)COc2ccc(OC(F)(F)F)cc2)n1 [Entry 235, N-{[2-(ethyloxy)phenyl]methyl}-2-({[({4-[(trifluoromethyl)oxy]phenyl}oxy)acetyl]amino}methyl)-1,3-oxazole-4-carboxamide] | 500 to 2000
14 | O=C(NCCc1cccc(Cl)c1)c1csc(CNC(=O)C2(c3ccc(Cl)cc3)CC2)n1 [Entry 236, 2-[({[1-(4-chlorophenyl)cyclopropyl]carbonyl}amino)methyl]-N-[2-(3-chlorophenyl)ethyl]-1,3-thiazole-4-carboxamide] | 500 to 2000
15 | CN(C)c1ccc(CNC(=O)c2csc(CNC(=O)COc3ccc(OC(F)(F)F)cc3)n2)cc1 [Entry 237, N-{[4-(dimethylamino)phenyl]methyl}-2-({[({4-[(trifluoromethyl)oxy]phenyl}oxy)acetyl]amino}methyl)-1,3-thiazole-4-carboxamide] | 500 to 2000
16 | CCCCCCN(CCC#N)C(=O)c1csc(CNC(=O)COc2ccc(OC(F)(F)F)cc2)n1 [Entry 238, N-(2-cyanoethyl)-N-hexyl-2-({[({4-[(trifluoromethyl)oxy]phenyl}oxy)acetyl]amino}methyl)-1,3-thiazole-4-carboxamide] | 500 to 2000

More lines, now with the values ahead:

Row | IC50 [nM] | SMILES
17 | 50 to 500 | Cc1ccc(CCNC(=O)c2coc(CNC(=O)COc3ccc(OC(F)(F)F)cc3)n2)cc1C [Entry 211, N-[2-(3,4-dimethylphenyl)ethyl]-2-({[({4-[(trifluoromethyl)oxy]phenyl}oxy)acetyl]amino}methyl)-1,3-oxazole-4-carboxamide]
18 | 50 to 500 | CCCCOc1ccc(NC(=O)NCc2nc(C(=O)NCc3ccccc3OC)cs2)cc1 [Entry 214, 2-{[({[4-(butyloxy)phenyl]amino}carbonyl)amino]methyl}-N-{[2-(methyloxy)phenyl]methyl}-1,3-thiazole-4-carboxamide]
19 | 50 to 500 | O=C(COc1ccc(OC(F)(F)F)cc1)NCc1nc(C(=O)NCC2CC2)cs1 [Entry 216, N-(cyclopropylmethyl)-2-({[({4-[(trifluoromethyl)oxy]phenyl}oxy)acetyl]amino}methyl)-1,3-thiazole-4-carboxamide]
20 | 500 to 2000 | CCCCCCC(C)NC(=O)c1csc(CNC(=O)COc2ccc(OC(F)(F)F)cc2)n1 (stereo not drawn) [Entry 220, N-(1-methylheptyl)-2-({[({4-[(trifluoromethyl)oxy]phenyl}oxy)acetyl]amino}methyl)-1,3-thiazole-4-carboxamide]
21 | 500 to 2000 | CSCC[C@H](NC(=O)c1ccccc1)C(=O)NCc1nc(C(=O)NCCc2cccc(Cl)c2)cs1 [Entry 221, N-{[4-({[2-(3-chlorophenyl)ethyl]amino}carbonyl)-1,3-thiazol-2-yl]methyl}-N~2~-(phenylcarbonyl)methioninamide]
22 | 500 to 2000 | Cc1ccc(CCNC(=O)c2coc(CNC(=O)COc3ccc(OC(F)(F)F)cc3)n2)cc1 [Entry 225, N-[2-(4-methylphenyl)ethyl]-2-({[({4-[(trifluoromethyl)oxy]phenyl}oxy)acetyl]amino}methyl)-1,3-oxazole-4-carboxamide]
23 | 500 to 2000 | O=C(COc1ccc(OC(F)(F)F)cc1)NCc1nc(C(=O)NCc2ccc(Cl)cc2)cs1 [Entry 227, N-[(4-chlorophenyl)methyl]-2-({[({4-[(trifluoromethyl)oxy]phenyl}oxy)acetyl]amino}methyl)-1,3-thiazole-4-carboxamide]
24 | 500 to 2000 | O=C(COc1ccc(OC(F)(F)F)cc1)NCc1nc(C(=O)NC2CCCC2)cs1 [Entry 228, N-cyclopentyl-2-({[({4-[(trifluoromethyl)oxy]phenyl}oxy)acetyl]amino}methyl)-1,3-thiazole-4-carboxamide]
25 | 500 to 2000 | COc1ccccc1CNC(=O)c1csc(CNC(=O)Cc2ccc3ccccc3c2)n1 [Entry 229, N-{[2-(methyloxy)phenyl]methyl}-2-{[(naphthalen-2-ylacetyl)amino]methyl}-1,3-thiazole-4-carboxamide]
26 | 500 to 2000 | CSc1ccc(CC(=O)NCc2nc(C(=O)NCCc3cccc(Cl)c3)cs2)cc1 [Entry 232, N-[2-(3-chlorophenyl)ethyl]-2-[({[4-(methylthio)phenyl]acetyl}amino)methyl]-1,3-thiazole-4-carboxamide]
27 | 500 to 2000 | C[C@@H](NC(=O)c1csc(CNC(=O)COc2ccc(OC(F)(F)F)cc2)n1)C(C)(C)C [Entry 233, 2-({[({4-[(trifluoromethyl)oxy]phenyl}oxy)acetyl]amino}methyl)-N-[(1R)-1,2,2-trimethylpropyl]-1,3-thiazole-4-carboxamide]
28 | 500 to 2000 | COc1cccc(CCNC(=O)c2coc(CNC(=O)COc3ccc(OC(F)(F)F)cc3)n2)c1 [Entry 234, N-{2-[3-(methyloxy)phenyl]ethyl}-2-({[({4-[(trifluoromethyl)oxy]phenyl}oxy)acetyl]amino}methyl)-1,3-oxazole-4-carboxamide]
29 | 500 to 2000 | O=C(COc1ccc(Br)cc1)NCc1nc(C(=O)NCCc2ccccc2F)cs1 [Entry 239, 2-[({[(4-bromophenyl)oxy]acetyl}amino)methyl]-N-[2-(2-fluorophenyl)ethyl]-1,3-thiazole-4-carboxamide]
30 | 500 to 2000 | C[C@H](CNC(=O)c1coc(CNC(=O)COc2ccc(OC(F)(F)F)cc2)n1)c1ccccc1 [Entry 240, N-[(2S)-2-phenylpropyl]-2-({[({4-[(trifluoromethyl)oxy]phenyl}oxy)acetyl]amino}methyl)-1,3-oxazole-4-carboxamide]
31 | 500 to 2000 | O=C(COc1ccc(OC(F)(F)F)cc1)NCc1nc(C(=O)NCc2cccnc2)cs1 [Entry 241, N-(pyridin-3-ylmethyl)-2-({[({4-[(trifluoromethyl)oxy]phenyl}oxy)acetyl]amino}methyl)-1,3-thiazole-4-carboxamide]
32 | 500 to 2000 | O=C(COc1ccc(OC(F)(F)F)cc1)NCc1nc(C(=O)NCCc2ccccc2)co1 [Entry 242, N-(2-phenylethyl)-2-({[({4-[(trifluoromethyl)oxy]phenyl}oxy)acetyl]amino}methyl)-1,3-oxazole-4-carboxamide]
33 | 500 to 2000 | Cc1ccc(N2CCN(C(=O)c3csc(CNC(=O)COc4ccc(OC(F)(F)F)cc4)n3)CC2C)cc1 (stereo not drawn) [Entry 243, N-[(4-{[3-methyl-4-(4-methylphenyl)piperazin-1-yl]carbonyl}-1,3-thiazol-2-yl)methyl]-2-({4-[(trifluoromethyl)oxy]phenyl}oxy)acetamide]
